According to patent US11629127B2, “Drug-induced activation of the Reelin signaling system” (UNIVERSITY OF SOUTH FLORIDA, priority 2017, dated 2023):

Molecular target: T1, ApoER2 (Homo sapiens, UniProt Q14114)
T1 construct: expressed in transfected cells; host or cells: HEK293 (named only through the non-transfected controls)
T1 sequence (Q14114 33-963) 1: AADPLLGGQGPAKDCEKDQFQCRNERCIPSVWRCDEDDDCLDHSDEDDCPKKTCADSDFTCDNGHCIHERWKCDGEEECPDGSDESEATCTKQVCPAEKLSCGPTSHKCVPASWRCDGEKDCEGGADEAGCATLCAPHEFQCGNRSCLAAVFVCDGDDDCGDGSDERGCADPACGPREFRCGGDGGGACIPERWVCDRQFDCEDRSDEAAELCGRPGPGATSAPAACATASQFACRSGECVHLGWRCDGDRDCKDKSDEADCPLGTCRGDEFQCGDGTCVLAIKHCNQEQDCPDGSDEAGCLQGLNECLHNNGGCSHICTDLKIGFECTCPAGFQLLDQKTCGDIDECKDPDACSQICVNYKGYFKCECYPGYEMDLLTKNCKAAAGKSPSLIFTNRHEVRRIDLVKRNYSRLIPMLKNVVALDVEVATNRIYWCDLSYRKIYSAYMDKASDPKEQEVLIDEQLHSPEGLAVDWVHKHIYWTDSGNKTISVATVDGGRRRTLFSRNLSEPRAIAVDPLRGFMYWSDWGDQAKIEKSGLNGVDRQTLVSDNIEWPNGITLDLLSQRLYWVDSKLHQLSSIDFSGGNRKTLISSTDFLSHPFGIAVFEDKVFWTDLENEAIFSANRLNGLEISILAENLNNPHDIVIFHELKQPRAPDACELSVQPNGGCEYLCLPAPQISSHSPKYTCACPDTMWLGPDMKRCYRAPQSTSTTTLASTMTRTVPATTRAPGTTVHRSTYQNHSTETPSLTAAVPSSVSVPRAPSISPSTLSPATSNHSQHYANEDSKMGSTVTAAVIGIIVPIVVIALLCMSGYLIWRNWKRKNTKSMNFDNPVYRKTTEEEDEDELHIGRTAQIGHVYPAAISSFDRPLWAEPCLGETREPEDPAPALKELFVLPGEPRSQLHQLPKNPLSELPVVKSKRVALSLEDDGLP
T1 sequence (Q14114 33-963) 2: T1 sequence (Q14114 33-963) 1
Assay: ApoER2 luciferase assay (ApoER2 dimerization/clustering)
Assay type: cell-based
Conditions: for changes in firefly/renilla ratios in the ApoER2 luciferase assay: 10 μM concentration, 60 minutes
Source text: FIG. 3 is a schematic of the ApoER2 Clustering Assay. The ApoER2 clustering assay uses the co-transfection of ApoER2 fusion proteins that express either the C- or N-terminal of the luciferase enzyme (A″) Upon Reelin fragment binding, receptor clustering results in active Luciferase and detectable fluorescence (B″). Controls included non-transfected Hek293 cells. Results are average +/−SEM; n=9-15 assays per fragment
Reelin is able to signal through ApoER2 and VLDLR by clustering the receptors. Receptor clustering results in Dab1 activation and is responsible for the modulation of LTP in wild-type acute hippocampal slices. The ApoER2 luciferase assay was used to measure ApoER2 dimerization. This system used an ApoER2-luciferase fusion protein in which ApoER2 was coupled with either the N- or C-terminus portion of luciferase. Upon receptor clustering, the N- and C-terminus portions of luciferase combined to produce a quantifiable fluorescent signal. As a control, all cells were transfected with a Renilla florescent protein that quantified the number of cells in the testing well. The ratio of luciferase florescence to Renilla florescence was used to determine the effect of small molecules. The ApoER2 luciferase assay (FIG. 3) was used to identify small molecules that mimic the actions of Reelin to activate the Reelin signaling system.
The CNS-Set Library was purchased from ChemBridge® and consisted of 35,000 small molecule compounds. The effects of each compound on Reelin signaling were tested in the absence or presence of purified Reeling with the ApoER2 luciferase assay in a 96-well plate. The assay was used to identify agonists of ApoER2 clustering and luciferase activity and was not particularly sensitive for identifying antagonists of receptor clustering.
Relact02 was tested for inducing dimerization of ApoER2 using luciferase as a reporter. Shown in FIG. 1A is a dose response curve assessing luciferase activity. Activity was determined by dimerization of two ApoER2 receptors fused with a luciferase enzyme reporter at the N- or C-terminal region. The control was a compound with structure similar to but different from Relact02. Shown in FIG. 1B is a time course for the luciferase assay using 5 μM of Relact02 or control molecule. Shown in FIG. 1C is a time course using 5 μM Relact02 alone (black bars) or in the presence of the Reelin protein (gray bars).

changes in firefly/renilla ratios in the ApoER2 luciferase assay | activation / luciferase activity in the ApoER2 luciferase assay (compound screening, 96-well plate) | Structure (SMILES)
did not show changes | – | CC(C)c1ccc(/C=C/C(=O)Nc2ccc(Cl)cc2Cl)cc1 [(2)]
did not show changes | – | CC(C)c1ccc(/C=C/C(=O)Nc2cccc(Cl)c2Cl)cc1 [(3)]
did not show changes | – | CC(C)c1ccc(/C=C/C(=O)Nc2ccc(Cl)cc2)cc1 [(4)]
did not show changes | – | CC(C)c1ccc(/C=C/C(=O)Nc2ccc(I)cc2Cl)cc1 [(5)]
– | no luciferase activity | CCOC(=O)c1cc(C(=O)NCc2ccccc2)c(=O)[nH]c1C [Compound E02, ethyl 5-((benzylamino)carbonyl)-2-methyl-6-oxo-1,6-dihydro-3-pyridinecarboxylate, reference compound]
